In ChEMBL document CHEMBL3877326, “Design, synthesis and evaluation of some N-methylenebenzenamine derivatives as selective acetylcholinesterase (AChE) inhibitor and antioxidant to enhance learning and memory” (Bioorg Med Chem, 2017):
The source made the active and inactive calls. The rule behind the calls is not given here.

Tests used:
Acetylcholinesterase [1] = molecular target: T1, Acetylcholinesterase (Electrophorus electricus, UniProt O42275); experiment: Inhibition of electric eel AChE using acetylthiocholine iodide as substrate preincubated for 20 mins followed by substrate addition by Ellman's method
Cholinesterase = Cholinesterase (Equus caballus, UniProt P81908); experiment: Inhibition of horse serum BuChE using butyrylthiocholine iodide as substrate preincubated for 20 mins followed by substrate addition by Ellman's method; format: ADME
[2] = Selectivity index, ratio of IC50 for horse serum BuChE to IC50 for electric eel AChE
Rattus norvegicus [3] = experiment: Cognition enhancement activity in Charles Foster albino rat model of spatial working memory assessed as escape latency at 30 mg/kg, po for administered from day 1 to 10 measured 1 hr post last dose on day 7 by Morris water maze test (reference value: 17.45 +/- 0.62 sec); format: functional
Rattus norvegicus [4] = experiment: Cognition enhancement activity in Charles Foster albino rat model of spatial working memory assessed as escape latency at 30 mg/kg, po for administered from day 1 to 10 measured 1 hr post last dose on day 8 by Morris water maze test (reference value: 16.97 +/- 0.8 sec); format: functional
Rattus norvegicus [5] = experiment: Cognition enhancement activity in Charles Foster albino rat model of spatial working memory assessed as escape latency at 20 mg/kg, po for administered from day 1 to 10 measured 1 hr post last dose on day 9 by Morris water maze test (reference value: 17.38 +/- 0.79 sec); format: functional
Acetylcholinesterase [6] = molecular target: T1, Acetylcholinesterase; experiment: Uncompetitive inhibition of electric eel AChE using varying levels of acetylthiocholine iodide substrate preincubated for 20 mins followed by substrate addition by Lineweaver-Burk plot analysis
[7] = Antioxidant activity assessed as H2O2 radical scavenging activity at 10 to 100 ug/ml incubated for 10 mins by UV-Visible spectrophotometric method; format: functional
Rattus norvegicus [8] = experiment: Cognition enhancement activity in Charles Foster albino rat model of spatial working memory assessed as escape latency at 10 mg/kg, po for administered from day 1 to 10 measured 1 hr post last dose on day 9 by Morris water maze test (reference value: 17.38 +/- 0.79 sec); format: functional
Rattus norvegicus [9] = experiment: Cognition enhancement activity in Charles Foster albino rat model of spatial reference memory assessed as increase in time spent in target quadrant during probe trial at 10 to 30 mg/kg, po administered from day 1 to 4 measured 1 hr post last dose on day 4 by Morris water maze test; format: functional, organism-based
Rattus norvegicus [10] = experiment: Cognition enhancement activity in Charles Foster albino rat model of spatial working memory assessed as escape latency at 10 mg/kg, po for administered from day 1 to 10 measured 1 hr post last dose on day 7 by Morris water maze test (reference value: 17.45 +/- 0.62 sec); format: functional
Rattus norvegicus [11] = experiment: Cognition enhancement activity in Charles Foster albino rat model of spatial working memory assessed as escape latency at 20 mg/kg, po for administered from day 1 to 10 measured 1 hr post last dose on day 7 by Morris water maze test (reference value: 17.45 +/- 0.62 sec); format: functional
Rattus norvegicus [12] = experiment: Cognition enhancement activity in Charles Foster albino rat model of spatial working memory assessed as escape latency at 20 mg/kg, po for administered from day 1 to 10 measured 1 hr post last dose on day 10 by Morris water maze test (reference value: 14.12 +/- 0.78 sec); format: functional
Rattus norvegicus [13] = experiment: Cognition enhancement activity in Charles Foster albino rat model of spatial working memory assessed as escape latency at 10 mg/kg, po for administered from day 1 to 10 measured 1 hr post last dose on day 8 by Morris water maze test (reference value: 16.97 +/- 0.8 sec); format: functional
[14] = Antioxidant activity assessed as DPPH radical scavenging activity at 10 to 100 ug/ml incubated for 30 mins under dark condition; format: functional
Rattus norvegicus [15] = experiment: Cognition enhancement activity in Charles Foster albino rat model of spatial working memory assessed as escape latency at 30 mg/kg, po for administered from day 1 to 10 measured 1 hr post last dose on day 10 by Morris water maze test (reference value: 14.12 +/- 0.78 sec); format: functional
Rattus norvegicus [16] = experiment: Cognition enhancement activity in Charles Foster albino rat model of spatial working memory assessed as escape latency at 10 mg/kg, po for administered from day 1 to 10 measured 1 hr post last dose on day 10 by Morris water maze test (reference value: 14.12 +/- 0.78 sec); format: functional
Rattus norvegicus [17] = experiment: Cognition enhancement activity in Charles Foster albino rat model of spatial working memory assessed as escape latency at 30 mg/kg, po for administered from day 1 to 10 measured 1 hr post last dose on day 9 by Morris water maze test (reference value: 17.38 +/- 0.79 sec); format: functional
Rattus norvegicus [18] = experiment: Ex vivo inhibition of AChE in Charles Foster albino rat brain assessed as substrate hydrolyzed per mg protein at 30 mg/kg, po measured after 1 hr using acetylthiocholine iodide as substrate by Ellman's method (reference value: 46.56 +/- 0.66 nmol/min); format: functional
Rattus norvegicus [19] = experiment: Cognition enhancement activity in Charles Foster albino rat model of spatial reference memory assessed as decrease in escape latency at 20 to 30 mg/kg, po administered from day 1 to 2 measured 1 hr post last dose on day 2 by Morris water maze test; format: functional, organism-based
Rattus norvegicus [20] = experiment: Cognition enhancement activity in Charles Foster albino rat model of spatial working memory assessed as escape latency at 20 mg/kg, po for administered from day 1 to 10 measured 1 hr post last dose on day 8 by Morris water maze test (reference value: 16.97 +/- 0.8 sec); format: functional
Rattus norvegicus [21] = experiment: Cognition enhancement activity in Charles Foster albino rat model of spatial reference memory assessed as increase in time spent in target quadrant during probe trial at 10 mg/kg, po for 4 days administered from day 1 to 4 measured 1 hr post last dose on day 4 by Morris water maze test; format: functional, organism-based
Rattus norvegicus [22] = experiment: Cognition enhancement activity in Charles Foster albino rat model of spatial reference memory assessed as decrease in escape latency at 10 mg/kg, po administered from day 1 to 2 measured 1 hr post last dose on day 2 by Morris water maze test; format: functional, organism-based

T1 sequence (O42275 whole entry): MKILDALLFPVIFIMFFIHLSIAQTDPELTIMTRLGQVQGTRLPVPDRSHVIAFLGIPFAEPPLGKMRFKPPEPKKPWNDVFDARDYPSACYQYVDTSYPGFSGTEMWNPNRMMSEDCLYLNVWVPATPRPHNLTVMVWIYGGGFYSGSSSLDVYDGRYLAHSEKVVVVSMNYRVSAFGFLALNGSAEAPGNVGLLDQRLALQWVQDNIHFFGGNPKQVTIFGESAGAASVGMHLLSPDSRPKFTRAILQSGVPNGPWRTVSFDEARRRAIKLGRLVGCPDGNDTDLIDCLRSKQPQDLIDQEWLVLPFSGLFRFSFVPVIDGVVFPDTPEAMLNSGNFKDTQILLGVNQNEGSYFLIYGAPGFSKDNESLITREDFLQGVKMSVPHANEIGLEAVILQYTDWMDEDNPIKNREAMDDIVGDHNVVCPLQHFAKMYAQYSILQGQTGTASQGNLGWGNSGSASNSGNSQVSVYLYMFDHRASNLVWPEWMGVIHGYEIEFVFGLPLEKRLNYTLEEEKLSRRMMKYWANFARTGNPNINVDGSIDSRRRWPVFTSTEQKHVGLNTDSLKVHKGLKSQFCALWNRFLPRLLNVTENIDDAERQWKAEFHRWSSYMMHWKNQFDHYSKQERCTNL
Sequence of Cholinesterase (P81908 whole entry): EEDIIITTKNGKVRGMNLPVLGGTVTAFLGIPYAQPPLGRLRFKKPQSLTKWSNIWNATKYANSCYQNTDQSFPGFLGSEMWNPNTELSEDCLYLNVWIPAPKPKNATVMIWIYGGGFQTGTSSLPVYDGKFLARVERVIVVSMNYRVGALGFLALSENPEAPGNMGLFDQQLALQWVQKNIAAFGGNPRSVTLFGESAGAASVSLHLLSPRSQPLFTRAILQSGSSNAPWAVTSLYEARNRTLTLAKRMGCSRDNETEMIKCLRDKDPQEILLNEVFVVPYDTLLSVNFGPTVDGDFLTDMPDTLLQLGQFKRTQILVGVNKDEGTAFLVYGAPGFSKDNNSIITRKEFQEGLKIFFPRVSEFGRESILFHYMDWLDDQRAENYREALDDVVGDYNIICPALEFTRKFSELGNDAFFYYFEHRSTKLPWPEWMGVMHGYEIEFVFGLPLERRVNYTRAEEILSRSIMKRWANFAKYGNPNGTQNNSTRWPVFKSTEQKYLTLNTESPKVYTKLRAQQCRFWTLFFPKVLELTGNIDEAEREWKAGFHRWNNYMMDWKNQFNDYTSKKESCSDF

| SMILES | IC50 (Acetylcholinesterase [1]) [µM] | IC50 (Cholinesterase) [µM] | Ratio IC50 [2] | further results |
| --- | --- | --- | --- | --- |
| COc1cc(/C=N/c2ccc(C(=O)O)cc2)cc(OC)c1OC | 11.5 | 378 | 32.7 |  |
| COc1ccc(/C(=N\c2ccc(C(=O)O)cc2)c2ccccc2)cc1 | 6.09 | 292 | 47.9 |  |
| O=C(O)c1ccc(/N=C/c2ccc([N+](=O)[O-])cc2)cc1 | 5.95 | 217 | 36.5 |  |
| COc1cc(/C(C)=N/c2ccc(C(=O)O)cc2)ccc1O | 3.93 | 839 | 214 |  |
| COc1cc(/N=C/c2cc(OC)c(OC)c(OC)c2)cc(OC)c1 | 0.82 | 328 | 402 | Time (Rattus norvegicus [3]): 16.87 s; Time (Rattus norvegicus [4]): 15.23 s; Time (Rattus norvegicus [5]): 12.23 s; Ki (Acetylcholinesterase [6]): 0.72 µM; Activity [7]: Active; Time (Rattus norvegicus [8]): 15.12 s; Activity (Rattus norvegicus [9]): Active; Time (Rattus norvegicus [10]): 17.57 s; Time (Rattus norvegicus [11]): 16.95 s; Time (Rattus norvegicus [12]): 8.87 s; Time (Rattus norvegicus [13]): 15.45 s; Activity [14]: Active; Time (Rattus norvegicus [15]): 8.92 s; Time (Rattus norvegicus [16]): 10.2 s; Time (Rattus norvegicus [17]): 10.37 s; Activity (Rattus norvegicus [18]): 30.85 nmol/min; Activity (Rattus norvegicus [19]): Active; Time (Rattus norvegicus [20]): 15.69 s |
| COc1cc2c(cc1OC)C(=O)C(CC1CCN(Cc3ccccc3)CC1)C2 (configuration not stated) [DONEPEZIL] |  |  |  | Activity [7]: Active; Time (Rattus norvegicus [8]): 7.78 s; Time (Rattus norvegicus [10]): 16.88 s; Time (Rattus norvegicus [13]): 14.38 s; Activity [14]: Active; Activity (Rattus norvegicus [21]): Active; Time (Rattus norvegicus [16]): 7.33 s; Activity (Rattus norvegicus [22]): Active |
| COc1cc(/N=C/c2ccccc2O)cc(OC)c1 | 25.5 | 747 | 29.2 |  |
| COc1ccc(/C(=N\c2cc(OC)cc(OC)c2)c2ccccc2)cc1 | 4.37 | 284 | 65.1 |  |
| COc1cc(/N=C/c2ccccc2[N+](=O)[O-])cc(OC)c1 | 14.3 | 457 | 31.8 |  |
| O=C(O)c1ccc(/N=C/c2ccccc2O)cc1 | 18 | 717 | 39.8 |  |
| O=C(O)c1ccc(/N=C/c2ccccc2[N+](=O)[O-])cc1 | 6 | 387 | 64.5 |  |
| O=C(O)c1ccc(/N=C/c2ccccc2)cc1 | 12.6 | 502 | 39.7 |  |
| COc1cc(/N=C/c2ccc([N+](=O)[O-])cc2)cc(OC)c1 | 7.01 | 452 | 64.5 |  |
